{"source": "patent US8012504B2", "about": "(priority 2000, dated 2011)", "key": {"[1]": {"conditions": "in vivo; cited from earlier work"}, "[2]": {"test": "Example 16: interaction potential, Mucinex and Sudafed 12 Hour alone or together, 3-way crossover", "type": "in vivo, human", "from_the_text": "In another study drug interaction potential for combination drugs was examined."}, "clinical": {"test": "clinical", "conditions": "human, in vivo, 1200 mg"}}, "note": "Counter-ions that a name gives are not always drawn."}
{"smiles": "CN[C@@H](C)[C@@H](O)c1ccccc1", "note": "[Pseudoephedrine, Pseudoephedrine hydrochloride]", "values": [{"measurement": "mean elimination half-life", "setting": "[1]", "value": "4 to 6", "unit": "h"}, {"measurement": "AUC(0-t)", "setting": "[2]; human, in vivo, po, 120 mg, Pseudoephedrine AUC0-t, mean, Treatment B: 120 mg pseudoephedrine HCl alone (Sudafed 12 Hour), overnight fast", "value": 4020, "unit": "ng·h/mL"}, {"measurement": "AUC(0-t)", "setting": "[2]; human, in vivo, po, 120 mg, Pseudoephedrine AUC0-t, mean, Treatment C: 120 mg pseudoephedrine HCl along with 1200 mg guaifenesin (Sudafed 12 Hour + Mucinex), overnight fast", "value": 3920, "unit": "ng·h/mL"}, {"measurement": "AUC(0-t)", "setting": "[2]; human, in vivo, po, 120 mg, Pseudoephedrine AUC0-t, median, Treatment B: 120 mg pseudoephedrine HCl alone (Sudafed 12 Hour), overnight fast", "value": 3820, "unit": "ng·h/mL"}, {"measurement": "AUC(0-t)", "setting": "[2]; human, in vivo, po, 120 mg, Pseudoephedrine AUC0-t, median, Treatment C: 120 mg pseudoephedrine HCl along with 1200 mg guaifenesin (Sudafed 12 Hour + Mucinex), overnight fast", "value": 3930, "unit": "ng·h/mL"}, {"measurement": "AUC(0-inf)", "setting": "[2]; human, in vivo, po, 120 mg, Pseudoephedrine AUCinf, mean, Treatment B: 120 mg pseudoephedrine HCl alone (Sudafed 12 Hour), overnight fast", "value": 4500, "unit": "ng·h/mL"}, {"measurement": "AUC(0-inf)", "setting": "[2]; human, in vivo, po, 120 mg, Pseudoephedrine AUCinf, mean, Treatment C: 120 mg pseudoephedrine HCl along with 1200 mg guaifenesin (Sudafed 12 Hour + Mucinex), overnight fast", "value": 4400, "unit": "ng·h/mL"}, {"measurement": "AUC(0-inf)", "setting": "[2]; human, in vivo, po, 120 mg, Pseudoephedrine AUCinf, median, Treatment B: 120 mg pseudoephedrine HCl alone (Sudafed 12 Hour), overnight fast", "value": 4430, "unit": "ng·h/mL"}, {"measurement": "AUC(0-inf)", "setting": "[2]; human, in vivo, po, 120 mg, Pseudoephedrine AUCinf, median, Treatment C: 120 mg pseudoephedrine HCl along with 1200 mg guaifenesin (Sudafed 12 Hour + Mucinex), overnight fast", "value": 4250, "unit": "ng·h/mL"}, {"measurement": "Cmax", "setting": "[2]; human, in vivo, po, 120 mg, Pseudoephedrine Cmax, mean, Treatment B: 120 mg pseudoephedrine HCl alone (Sudafed 12 Hour), overnight fast", "value": 296, "unit": "ng/mL"}, {"measurement": "Cmax", "setting": "[2]; human, in vivo, po, 120 mg, Pseudoephedrine Cmax, mean, Treatment C: 120 mg pseudoephedrine HCl along with 1200 mg guaifenesin (Sudafed 12 Hour + Mucinex), overnight fast", "value": 289, "unit": "ng/mL"}, {"measurement": "Cmax", "setting": "[2]; human, in vivo, po, 120 mg, Pseudoephedrine Cmax, median, Treatment B: 120 mg pseudoephedrine HCl alone (Sudafed 12 Hour), overnight fast", "value": 298, "unit": "ng/mL"}, {"measurement": "Cmax", "setting": "[2]; human, in vivo, po, 120 mg, Pseudoephedrine Cmax, median, Treatment C: 120 mg pseudoephedrine HCl along with 1200 mg guaifenesin (Sudafed 12 Hour + Mucinex), overnight fast", "value": 286, "unit": "ng/mL"}, {"measurement": "half-life", "setting": "[2]; human, in vivo, po, 120 mg, Pseudoephedrine Half-life, mean, Treatment B: 120 mg pseudoephedrine HCl alone (Sudafed 12 Hour), overnight fast", "value": 6.05, "unit": "h"}, {"measurement": "half-life", "setting": "[2]; human, in vivo, po, 120 mg, Pseudoephedrine Half-life, mean, Treatment C: 120 mg pseudoephedrine HCl along with 1200 mg guaifenesin (Sudafed 12 Hour + Mucinex), overnight fast", "value": 6.04, "unit": "h"}, {"measurement": "half-life", "setting": "[2]; human, in vivo, po, 120 mg, Pseudoephedrine Half-life, median, Treatment B: 120 mg pseudoephedrine HCl alone (Sudafed 12 Hour), overnight fast", "value": 5.81, "unit": "h"}, {"measurement": "half-life", "setting": "[2]; human, in vivo, po, 120 mg, Pseudoephedrine Half-life, median, Treatment C: 120 mg pseudoephedrine HCl along with 1200 mg guaifenesin (Sudafed 12 Hour + Mucinex), overnight fast", "value": 5.63, "unit": "h"}, {"measurement": "Tmax", "setting": "[2]; human, in vivo, po, 120 mg, Pseudoephedrine Tmax, mean, Treatment B: 120 mg pseudoephedrine HCl alone (Sudafed 12 Hour), overnight fast", "value": 6.17, "unit": "h"}, {"measurement": "Tmax", "setting": "[2]; human, in vivo, po, 120 mg, Pseudoephedrine Tmax, mean, Treatment C: 120 mg pseudoephedrine HCl along with 1200 mg guaifenesin (Sudafed 12 Hour + Mucinex), overnight fast", "value": 5.75, "unit": "h"}, {"measurement": "Tmax", "setting": "[2]; human, in vivo, po, 120 mg, Pseudoephedrine Tmax, median, Treatment B: 120 mg pseudoephedrine HCl alone (Sudafed 12 Hour), overnight fast", "value": 6, "unit": "h"}, {"measurement": "Tmax", "setting": "[2]; human, in vivo, po, 120 mg, Pseudoephedrine Tmax, median, Treatment C: 120 mg pseudoephedrine HCl along with 1200 mg guaifenesin (Sudafed 12 Hour + Mucinex), overnight fast", "value": 6, "unit": "h"}, {"measurement": "Pseudoephedrine Clearance", "setting": "[2]; mean, Treatment B: 120 mg pseudoephedrine HCl alone (Sudafed 12 Hour), overnight fast", "value": 23.66, "unit": "L/h"}, {"measurement": "Pseudoephedrine Clearance", "setting": "[2]; mean, Treatment C: 120 mg pseudoephedrine HCl along with 1200 mg guaifenesin (Sudafed 12 Hour + Mucinex), overnight fast", "value": 24.30, "unit": "L/h"}, {"measurement": "Pseudoephedrine Clearance", "setting": "[2]; median, Treatment B: 120 mg pseudoephedrine HCl alone (Sudafed 12 Hour), overnight fast", "value": 22.20, "unit": "L/h"}, {"measurement": "Pseudoephedrine Clearance", "setting": "[2]; median, Treatment C: 120 mg pseudoephedrine HCl along with 1200 mg guaifenesin (Sudafed 12 Hour + Mucinex), overnight fast", "value": 23.16, "unit": "L/h"}]}
{"smiles": "COc1ccccc1OCC(O)CO", "note": "(centres unmarked) [Guaifenesin, 3-(2-methoxyphenoxy)-1,2-propanediol]", "values": [{"measurement": "typical plasma half-life", "setting": "[1]", "value": "approximately one"}, {"measurement": "AUC(0-t)", "setting": "clinical; Guaifenesin AUC0-t", "value": 8350, "unit": "ng·h/mL"}, {"measurement": "AUC(0-inf)", "setting": "clinical; Guaifenesin AUCinf", "value": 8830, "unit": "ng·h/mL"}, {"measurement": "clearance", "setting": "clinical; Guaifenesin Clearance", "value": 2270, "unit": "mL/min"}, {"measurement": "Cmax", "setting": "clinical; Guaifenesin Cmax", "value": 1920, "unit": "ng/mL"}, {"measurement": "half-life", "setting": "clinical; Guaifenesin Half life", "value": 3.03, "unit": "h"}, {"measurement": "Tmax", "setting": "clinical; Guaifenesin Tmax", "value": 0.75, "unit": "h"}, {"measurement": "AUC(0-t)", "setting": "[2]; human, in vivo, 1200 mg, Guaifenesin AUC0-t", "value": 7060, "unit": "ng·h/mL"}, {"measurement": "AUC(0-inf)", "setting": "[2]; human, in vivo, 1200 mg, Guaifenesin AUCinf", "value": 7280, "unit": "ng·h/mL"}, {"measurement": "clearance", "setting": "[2]; human, in vivo, 1200 mg, Guaifenesin Clearance", "value": 2750, "unit": "mL/min"}, {"measurement": "Cmax", "setting": "[2]; human, in vivo, 1200 mg, Guaifenesin Cmax", "value": 1700, "unit": "ng/mL"}, {"measurement": "half-life", "setting": "[2]; human, in vivo, 1200 mg, Guaifenesin Half-life", "value": 2.82, "unit": "h"}, {"measurement": "Tmax", "setting": "[2]; human, in vivo, 1200 mg, Guaifenesin Tmax", "value": 0.75, "unit": "h"}]}
